Data set [1] concerns THP-1. Kind of data set: Cytotoxicity against human THP1 cells at 2 uM after 24 hrs by WST assay. The settings on record: thp-1, 24 h. The data set is classed as cell-based.
In data set [2] the test system is THP-1. In words: Cytotoxicity against human THP1 cells assessed as cell viability after 24 hrs by WST assay. Conditions: THP-1, 24 h. The data set is classed as cell-based.
The test system of data set [3] is THP-1. Kind of data set: Antiinflammatory activity in differentiated human THP1 cells assessed as inhibition of LPS-induced TNFalpha secretion at 2 uM after 24 hrs by ELISA. The data set is classed as functional, cell-based. For orientation: ELISA stands for enzyme-linked immunosorbent assay.
Data set [4] deals with THP-1. Kind of data set: Antiinflammatory activity in differentiated human THP1 cells assessed as inhibition of LPS-induced IkappaB degradation at 2 uM pretreated for 1 hr measured after 30 mins of LPS stimulation by Western blot analysis. In kind it is functional, cell-based. (A western blot detects proteins with antibodies after separation by electrophoresis.)
For data set [5], the system named is THP-1. Kind of data set: Antiinflammatory activity in differentiated human THP1 cells assessed as inhibition of LPS-induced NFkappaB activation at 2 uM pretreated for 1 hr measured after 4 hrs of LPS stimulation by DAPI-staining based immunohistochemical analysis. In kind it is functional, cell-based.
Data set [6] concerns THP-1. Kind of data set: Cytotoxicity against human THP1 cells assessed as increase in ROS level at 2 uM. In kind it is cell-based. Conditions: thp-1, 2 µM.
Data set [7] relates to THP-1. Kind of data set: Antiinflammatory activity in differentiated human THP1 cells assessed as inhibition of LPS-induced TNFalpha mRNA expression at 2 uM after 4 hrs by RT-qPCR analysis. In kind it is functional, cell-based. Background: Quantitative PCR measures a nucleic acid by following its amplification.
The subject of data set [8] is THP-1. In words: Antiinflammatory activity in differentiated human THP1 cells assessed as inhibition of LPS-induced ROS level at 2 uM pretreated for 1 hr measured after 24 hrs of LPS stimulation by fluorescence assay. In kind it is functional, cell-based.

SMILES strings stand for the structures. Calls of active or inactive are those of the source. No cut-off for these calls is given here.

By IC50 is commonly meant the midpoint of a concentration-inhibition curve.

With `COc1cc([C@@H]2CC(=O)c3c(cc(O)c(CC=C(C)C)c3O)O2)ccc1O`, the Activity entry in the data set on THP-1 [1] is “Non-toxic”. Besides, in the data set on THP-1 [2], the 50% inhibitory concentration (IC50) was over 10 µM.
As for `CC(C)=CCCC1(C)C=Cc2c(cc3c(c2O)C(=O)C[C@@H](c2cc(O)cc(O)c2)O3)O1` (stereo partly drawn), the Activity result in the data set with THP-1 [1] is “Non-toxic”. The IC50 in the data set on THP-1 [2] was over 10 µM.
On to `COc1cc([C@@H]2CC(=O)c3c(O)cc(O)cc3O2)cc(OC)c1OC`, for which, in the data set with THP-1 [1], the Activity result is given as “Non-toxic”. Besides, in the data set on THP-1 [2], the half-maximal inhibitory concentration (IC50) is over 10 µM.
The matching figures for `O=C1C[C@@H](c2ccc(O)c(O)c2)Oc2cc(O)cc(O)c21` [ERIODICTYOL]: “Non-toxic” and over 10 µM.
On the same counts, the results for `COc1cc(C2CC(=O)c3c(cc(O)c(C/C=C(\C)CCC(O)C(C)(C)OC)c3O)O2)cc(OC)c1O` (stereo not drawn) are “Non-toxic” and over 10 µM.
For the compound `COc1cc([C@@H]2CC(=O)c3c(cc(O)c(C/C=C(\C)CCC=C(C)C)c3O)O2)cc(OC)c1O`, the outcome in the data set on THP-1 [3] was Active. Moreover, the Activity result in the data set with THP-1 [1] is listed as “Non-toxic”. The half-inhibitory concentration (IC50) in the data set on THP-1 [2] is under 10 µM.
On the same counts, the results for `COc1cc([C@@H]2CC(=O)c3c(cc(O)c(C/C=C(\C)C/C=C/C(C)(C)O)c3O)O2)ccc1O` [TOMENTODIPLACONE B] are “Active”, “Non-toxic” and over 10 µM.
Turning to `COc1cc([C@@H]2CC(=O)c3c(cc(O)c(C/C=C(\C)CCC(O)C(C)(C)OC)c3O)O2)ccc1O` (stereo partly drawn), in the data set on THP-1 [1], the Activity result was “Non-toxic”. In the data set on THP-1 [2], the IC50 is over 10 µM.
Consider `CC(C)=CCC/C(C)=C/Cc1c(O)cc2c(c1O)C(=O)C[C@@H](c1ccc(O)cc1)O2` [BONANNIONE A], for which the Activity result in the data set with THP-1 [1] was “Non-toxic”. Also, the IC50 with THP-1 [2] was under 10 µM.
Turning to `C=C(CCC=C(C)C)C(O)Cc1c(O)cc2c(c1O)C(=O)C[C@@H](c1ccc(O)cc1)O2` (stereo partly drawn), the outcome in the data set with THP-1 [4], in the data set on THP-1 [3], in the data set with THP-1 [5] and with THP-1 [7] was Active. Further, the Activity result in the data set with THP-1 [1] is listed as “Non-toxic”; in the data set on THP-1 [6], “Toxic”. Further, the IC50 in the data set with THP-1 [2] is over 11.4 µM.
As to `COc1cc([C@H]2Oc3cc4c(c(O)c3C(=O)[C@@H]2O)C=CC(C)(CCC=C(C)C)O4)ccc1O` (stereo partly drawn), the result in the data set with THP-1 [3] was Active. Moreover, the Activity result in the data set with THP-1 [1] was “Non-toxic”. For the same compound, the half-inhibitory concentration (IC50) in the data set with THP-1 [2] was over 10 µM.
For `CC(C)=CCC/C(C)=C/Cc1c(O)cc2c(c1O)C(=O)C[C@@H](c1ccc(O)c(O)c1)O2` [NYMPHAEOL A], the outcome in the data set with THP-1 [4], in the data set on THP-1 [5] and in the data set with THP-1 [7] was Active. The Activity result in the data set with THP-1 [1] is reported as “Non-toxic”. The IC50 in the data set with THP-1 [2] is over 10 µM. Further, the outcome in the data set on THP-1 [8] was inactive.
For the compound `C/C(=C\Cc1c(O)cc2c(c1O)C(=O)C[C@@H](c1ccc(O)cc1)O2)CCC(O)C(C)(C)O` (stereo partly drawn), the Activity entry in the data set on THP-1 [1] is recorded as “Non-toxic”. Moreover, the IC50 with THP-1 [2] was over 10 µM.
The matching figures for `COC(C)(C)C(O)CC/C(C)=C/Cc1c(O)cc2c(c1O)C(=O)C[C@@H](c1ccc(O)cc1)O2` (stereo partly drawn): “Non-toxic” and over 10 µM.
Regarding `CC(C)=CCCC(C)(O)C1Cc2c(cc3c(c2O)C(=O)CC(c2ccc(O)cc2)O3)O1` (stereo not drawn), in the data set on THP-1 [1], the Activity result is given as “Non-toxic”. For the same compound, in the data set with THP-1 [2], the IC50 is over 10 µM.
Turning to `O=C1C[C@@H](c2ccc(O)cc2)Oc2cc(O)cc(O)c21` [NARINGENIN], the Activity result in the data set on THP-1 [1] was “Non-toxic”. For the same compound, the 50% inhibitory concentration (IC50) in the data set on THP-1 [2] was over 10 µM.
On to `COc1ccc([C@@H]2CC(=O)c3c(cc(O)c(C/C=C(\C)CCC=C(C)C)c3O)O2)cc1OC`, for which, in the data set with THP-1 [3], the result was Active. Besides, the Activity entry in the data set with THP-1 [1] is “Non-toxic”. Besides, in the data set on THP-1 [2], the half-inhibitory concentration (IC50) was under 10 µM.
For `C=C(C)C1CCC(C)(C(O)Cc2c(O)cc3c(c2O)C(=O)C[C@@H](c2ccc(O)c(OC)c2)O3)O1` (stereo partly drawn), the Activity entry in the data set on THP-1 [1] is reported as “Non-toxic”. In addition, the 50% inhibitory concentration (IC50) with THP-1 [2] is over 10 µM.
Consider `COc1cc([C@@H]2CC(=O)c3c(cc(O)c(C/C=C(\C)CCC=C(C)C)c3O)O2)cc(O)c1OC`, for which the outcome in the data set on THP-1 [4], in the data set on THP-1 [5] and with THP-1 [7] was Active. Further, the Activity result in the data set on THP-1 [1] is reported as “Non-toxic”. The IC50 with THP-1 [2] is under 10 µM.
As to `COc1cc([C@@H]2CC(=O)c3c(cc4c(c3O)CC(C(C)(O)CCC=C(C)C)O4)O2)ccc1O` (stereo partly drawn), in the data set on THP-1 [1], the Activity result is “Non-toxic”. For the same compound, in the data set with THP-1 [2], the half-maximal inhibitory concentration (IC50) is under 10 µM.
On the same counts, the results for `COc1cc(C2CC(=O)c3c(cc(O)c(C/C=C(\C)CCC(O)C(C)(C)O)c3O)O2)cc(OC)c1O` (stereo not drawn) are “Non-toxic” and over 10 µM.
For `COc1cc([C@@H]2CC(=O)c3c(cc(O)c(C/C=C(\C)CCC=C(C)C)c3O)O2)ccc1O`, the result in the data set on THP-1 [4], with THP-1 [3], in the data set with THP-1 [5] and in the data set on THP-1 [7] was Active. The Activity entry in the data set on THP-1 [1] is given as “Non-toxic”. Also, the concentration for half-maximal inhibition (IC50) with THP-1 [2] was under 10 µM. Besides, the outcome in the data set with THP-1 [8] was inactive.
Take `COc1cc([C@H]2Oc3cc(O)c(C/C=C(\C)CCC=C(C)C)c(O)c3C(=O)[C@@H]2O)ccc1O`: the result with THP-1 [3] was Active. Besides, the Activity entry with THP-1 [1] is “Non-toxic”. In the data set with THP-1 [2], the half-inhibitory concentration (IC50) is under 10 µM.
`C=C(CCC=C(C)C)C(O)Cc1c(O)cc2c(c1O)C(=O)C[C@@H](c1ccc(O)c(OC)c1)O2` (stereo partly drawn): the Activity result in the data set on THP-1 [1] is “Non-toxic”. The IC50 with THP-1 [2] is under 6.5 µM.
Turning to `COc1cc([C@@H]2CC(=O)c3c(cc4c(c3O)CC(O)C(C)(CCC=C(C)C)O4)O2)ccc1O` (stereo partly drawn), the outcome in the data set with THP-1 [4], in the data set on THP-1 [3], in the data set on THP-1 [5] and in the data set on THP-1 [7] was Active. In addition, the Activity entry in the data set on THP-1 [1] was “Non-toxic”; in the data set on THP-1 [6], “Toxic”. Also, the IC50 in the data set with THP-1 [2] was under 10 µM. The outcome in the data set on THP-1 [8] was inactive.

For the origin of these results see ChEMBL document CHEMBL3580543, “C-Geranylated Flavanones from Paulownia tomentosa Fruits as Potential Anti-inflammatory Compounds Acting via Inhibition of TNF-α Production” (J Nat Prod, 2015).
